We go through 27 molecules from patent publication US12209087B2, “AKT1 modulators” (Alterome Therapeutics, Inc., priority 2022, dated 2025).

SMILES strings stand for the structures. Where only a bound is given, the exact number is not on record here.

T1 sequence (P31749 whole entry E17K): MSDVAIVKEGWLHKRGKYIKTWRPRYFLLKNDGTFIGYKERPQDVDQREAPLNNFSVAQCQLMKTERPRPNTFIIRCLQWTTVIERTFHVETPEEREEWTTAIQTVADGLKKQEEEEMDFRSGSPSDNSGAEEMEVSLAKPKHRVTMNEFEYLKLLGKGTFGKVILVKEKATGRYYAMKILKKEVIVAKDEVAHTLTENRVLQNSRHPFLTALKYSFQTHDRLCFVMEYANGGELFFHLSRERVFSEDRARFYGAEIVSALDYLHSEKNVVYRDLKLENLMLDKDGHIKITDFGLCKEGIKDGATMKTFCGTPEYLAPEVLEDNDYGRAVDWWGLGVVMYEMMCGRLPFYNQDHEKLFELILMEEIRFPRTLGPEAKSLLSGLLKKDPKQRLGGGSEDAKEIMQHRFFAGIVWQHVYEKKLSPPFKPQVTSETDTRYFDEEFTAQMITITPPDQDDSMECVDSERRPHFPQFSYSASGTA

One assay has as its target T1, full length AKT E17K (Homo sapiens, UniProt P31749, E17K).
T1 construct: host or cells: HEK-293 (ATCC CRL-1573)
Put plainly: NanoBRET Target Engagement (TE) Assay. Type of assay: cell-based. Conditions: competitive displacement of tracer in cells, read-out: AKT1 E17K IC50. The essentials: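 Compound and tracer incubated 2 h before luminescence at donor 450 nm and acceptor 600 nm, with extracellular signal inhibited. EC50 by sigmoidal variable-slope regression.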
Regarding `N#Cc1cncc(-c2ccc3nc(-c4cccnc4N)n(-c4ccc(CN5CCC(Nc6ccnc(C#N)n6)CC5)cc4)c3n2)c1` [Example 430, 4-((1-(4-(2-(2-Aminopyridin-3-yl)-5-(5-cyanopyridin-3-yl)-3H-imidazo[4,5-b]pyridin-3-yl)benzyl)piperidin-4-yl)amino)pyrimidine-2-carbonitrile], the half-inhibitory concentration (IC50) is under 15 nM. Same read-out and setting: to `N#Cc1nccc(NC2CCN(Cc3ccc(-n4c(-c5cccnc5N)nc5ccc(-c6ccncc6C#N)nc54)cc3)CC2)n1` [Example 400, 4-((1-(4-(2-(2-Aminopyridin-3-yl)-5-(3-cyanopyridin-4-yl)-3H-imidazo[4,5-b]pyridin-3-yl)benzyl)piperidin-4-yl)amino)pyrimidine-2-carbonitrile] belongs under 15 nM; to `N#Cc1nccc(NC2CCN(Cc3ccc(-n4c(-c5cccnc5N)nc5ccc(-c6ccc(C(F)(F)F)cc6)nc54)cc3)CC2)n1` [Example 471, 4-((1-(4-(2-(2-Aminopyridin-3-yl)-5-(4-(trifluoromethyl)phenyl)-3H-imidazo[4,5-b]pyridin-3-yl)benzyl)piperidin-4-yl)amino)pyrimidine-2-carbonitrile], 15 to 60 nM. Regarding `CC1(Nc2ccnc(C#N)n2)CCN(Cc2ccc(-n3c(-c4cccnc4N)nc4cccnc43)cc2)CC1` [Example 392, 4-((1-(4-(2-(2-Aminopyridin-3-yl)-3H-imidazo[4,5-b]pyridin-3-yl)benzyl)-4-methylpiperidin-4-yl)amino)pyrimidine-2-carbonitrile], the IC50 was 60 to 600 nM. On the same count and under the same terms, as for `COc1ccc(-c2ccc3nc(-c4cccnc4N)n(-c4ccc(CN5CCC(Nc6ccnc(C#N)n6)CC5)cc4)c3n2)cn1` [Example 516, 4-((1-(4-(2-(2-Aminopyridin-3-yl)-5-(6-methoxypyridin-3-yl)-3H-imidazo[4,5-b]pyridin-3-yl)benzyl)piperidin-4-yl)amino)pyrimidine-2-carbonitrile], the figure is under 15 nM; as for `N#Cc1nccc(NC2CCN(Cc3ccc(-n4c(-c5cccnc5N)nc5ccc(-n6ccnn6)nc54)cc3)CC2)n1` [Example 591, 4-((1-(4-(2-(2-Aminopyridin-3-yl)-5-(1H-1,2,3-triazol-1-yl)-3H-imidazo[4,5-b]pyridin-3-yl)benzyl)piperidin-4-yl)amino)pyrimidine-2-carbonitrile], under 15 nM. Take `COc1cc(-c2ccc3nc(-c4cccnc4N)n(-c4ccc(CN5CCC(Nc6ccnc(C#N)n6)CC5)cc4)c3n2)ccn1` [Example 511, 4-((1-(4-(2-(2-Aminopyridin-3-yl)-5-(2-methoxypyridin-4-yl)-3H-imidazo[4,5-b]pyridin-3-yl)benzyl)piperidin-4-yl)amino)pyrimidine-2-carbonitrile]: the IC50 is under 15 nM. For the molecule `N#Cc1ncnc(NC2CCN(Cc3ccc(-n4c(-c5cccnc5N)nc5ccc(-c6ccc(F)cc6)nc54)cc3)CC2)n1` [Example 487, 4-((1-(4-(2-(2-Aminopyridin-3-yl)-5-(4-fluorophenyl)-3H-imidazo[4,5-b]pyridin-3-yl)benzyl)piperidin-4-yl)amino)-1,3,5-triazine-2-carbonitrile], the 50% inhibitory concentration (IC50) was under 15 nM. As to `N#Cc1nccc(NC2CCN(Cc3ccc(-n4c(-c5cccnc5N)nc5nc(C#N)c(C#N)nc54)cc3)CC2)n1` [Example 556, 2-(2-Aminopyridin-3-yl)-1-(4-((4-((2-cyanopyrimidin-4-yl)amino)piperidin-1-yl)methyl)phenyl)-1H-imidazo[4,5-b]pyrazine-5,6-dicarbonitrile], the half-maximal inhibitory concentration (IC50) was in the range of 600 to 10000 nM. For the molecule `N#Cc1cc(N2CCN(Cc3ccc(-n4c(-c5cccnc5N)nc5ccc(-c6cccc(=O)[nH]6)nc54)cc3)CC2)ncn1` [Example 334, 6-(4-(4-(2-(2-Aminopyridin-3-yl)-5-(6-oxo-1,6-dihydropyridin-2-yl)-3H-imidazo[4,5-b]pyridin-3-yl)benzyl)piperazin-1-yl)pyrimidine-4-carbonitrile], the half-inhibitory concentration (IC50) lay in the range of 15 to 60 nM. As to `Cn1cncc1-c1ccc2nc(-c3cccnc3N)n(-c3ccc(CN4CCC(Nc5ccnc(C#N)n5)CC4)cc3)c2n1` [Example 546, 4-((1-(4-(2-(2-Aminopyridin-3-yl)-5-(1-methyl-1H-imidazol-5-yl)-3H-imidazo[4,5-b]pyridin-3-yl)benzyl)piperidin-4-yl)amino)pyrimidine-2-carbonitrile], the IC50 was under 15 nM. On to `N#Cc1nccc(NC2CCN(Cc3ccc(-n4c(-c5cccnc5N)nc5ccc(-c6ccc(F)cc6C(N)=O)nc54)cc3)CC2)n1` [Example 524, 2-(2-(2-aminopyridin-3-yl)-3-(4-((4-((2-cyanopyrimidin-4-yl)amino)piperidin-1-yl)methyl)phenyl)-3H-imidazo[4,5-b]pyridin-5-yl)-5-fluorobenzamide], for which the concentration for half-maximal inhibition (IC50) is 600 to 10000 nM. Still for that read-out and setting: as for `N#Cc1nccc(NC2CCN(Cc3ccc(-n4c(-c5cccnc5N)nc5ccc(-c6cnc(F)cn6)nc54)cc3)CC2)n1` [Example 605, 4-((1-(4-(2-(2-Aminopyridin-3-yl)-5-(5-fluoropyrazin-2-yl)-3H-imidazo[4,5-b]pyridin-3-yl)benzyl)piperidin-4-yl)amino)pyrimidine-2-carbonitrile], the figure is under 15 nM; as for `N#Cc1nccc(NC2CCN(Cc3ccc(-n4c(-c5cccnc5N)nc5ccccc54)cc3)CC2)n1` [Example 532, 4-((1-(4-(2-(2-Aminopyridin-3-yl)-1H-benzo[d]imidazol-1-yl)benzyl)piperidin-4-yl)amino)pyrimidine-2-carbonitrile], 60 to 600 nM.

The assay is the same for the next values; noted with them: competitive tracer displacement in living cells, read-out: AKT1 E17K IC50.
For `N#Cc1ccc(C(=O)N2CCN(Cc3ccc(-n4c(-c5cccnc5N)nc5cccnc54)cc3)CC2)nc1` [Example 80, 6-(4-(4-(2-(2-Aminopyridin-3-yl)-3H-imidazo[4,5-b]pyridin-3-yl)benzyl)piperazine-1-carbonyl)nicotinonitrile], the half-inhibitory concentration (IC50) lay in the range of 600 to 10000 nM.

As for `N#Cc1nccnc1C(=O)N1CCN(Cc2ccc(-n3c(-c4cccnc4N)nc4ccc(-c5ccccc5)nc43)cc2)CC1` [Example 163, 3-(4-(4-(2-(2-aminopyridin-3-yl)-5-phenyl-3H-imidazo[4,5-b]pyridin-3-yl)benzyl)piperazine-1-carbonyl)pyrazine-2-carbonitrile], the half-inhibitory concentration (IC50) fell in the range of 60 to 600 nM. For the molecule `C[C@@H]1CN(Cc2ccc(-n3c(-c4cccnc4N)nc4ccc(-c5ccccc5)nc43)cc2)CCN1c1nccc(C#N)n1` [Example 226, (R)-2-(4-(4-(2-(2-Aminopyridin-3-yl)-5-phenyl-3H-imidazo[4,5-b]pyridin-3-yl)benzyl)-2-methylpiperazin-1-yl)pyrimidine-4-carbonitrile], the IC50 fell in the range of 60 to 600 nM.

As for `N#Cc1ccc(-c2ccc3nc(-c4cccnc4N)n(-c4ccc(CN5CCN(c6ccnc(C#N)n6)CC5)cc4)c3n2)cc1` [Example 294, 4-(4-(4-(2-(2-Aminopyridin-3-yl)-5-(4-cyanophenyl)-3H-imidazo[4,5-b]pyridin-3-yl)benzyl)piperazin-1-yl)pyrimidine-2-carbonitrile], the half-inhibitory concentration (IC50) lay in the range of 15 to 60 nM. The same measure, in the same setting: as for `N#Cc1cc(N2CCN(Cc3ccc(-n4c(-c5cccnc5N)nc5ccc(-c6ccccc6)nc54)cc3)CC2)ncn1` [Example 78, 6-(4-(4-(2-(2-Aminopyridin-3-yl)-5-phenyl-3H-imidazo[4,5-b]pyridin-3-yl)benzyl)piperazin-1-yl)pyrimidine-4-carbonitrile], the figure is under 15 nM. Take `N#Cc1cc(N2CCN(Cc3ccc(-n4c(-c5cccnc5N)nc5ccc(-c6ccccc6)nc54)cc3)CC2)cnn1` [Example 159, 5-(4-(4-(2-(2-Aminopyridin-3-yl)-5-phenyl-3H-imidazo[4,5-b]pyridin-3-yl)benzyl)piperazin-1-yl)pyridazine-3-carbonitrile]: the IC50 was 15 to 60 nM. Consider `[2H]C([2H])([2H])N(C(=O)c1ccnc(C#N)n1)C1CCN(Cc2ccc(-n3c(-c4cccnc4N)nc4ccc(-c5ccccc5)nc43)cc2)CC1` [Example 234, N-(1-(4-(2-(2-aminopyridin-3-yl)-5-phenyl-3H-imidazo[4,5-b]pyridin-3-yl)benzyl)piperidin-4-yl)-2-cyano-N-(methyl-d3)pyrimidine-4-carboxamide], for which the IC50 was under 15 nM. For `N#Cc1cccc(NCc2ccc(-n3c(-c4cccnc4N)nc4cccnc43)cc2)n1` [Example 130, 6-((4-(2-(2-Aminopyridin-3-yl)-3H-imidazo[4,5-b]pyridin-3-yl)benzyl)amino)picolinonitrile], the concentration for half-maximal inhibition (IC50) is 600 to 10000 nM. Turning to `N#Cc1nc2cc(F)cc(C(=O)N3CCN(Cc4ccc(-n5c(-c6cccnc6N)nc6cccnc65)cc4)CC3)c2s1` [Example 175, 7-(4-(4-(2-(2-aminopyridin-3-yl)-3H-imidazo[4,5-b]pyridin-3-yl)benzyl)piperazine-1-carbonyl)-5-fluorobenzo[d]thiazole-2-carbonitrile], the IC50 was in the range of 600 to 10000 nM.

`N#Cc1ncc(NCc2ccc(-n3c(-c4cccnc4N)nc4cccnc43)cc2)cn1` [Example 95, 5-((4-(2-(2-Aminopyridin-3-yl)-3H-imidazo[4,5-b]pyridin-3-yl)benzyl)amino)pyrimidine-2-carbonitrile]: the IC50 is 600 to 10000 nM. For the molecule `N#Cc1nccc(N2CCCN(Cc3ccc(-n4c(-c5cccnc5N)nc5ccc(-c6ccccc6)nc54)cc3)CC2)n1` [Example 214, 4-(4-(4-(2-(2-Aminopyridin-3-yl)-5-phenyl-3H-imidazo[4,5-b]pyridin-3-yl)benzyl)-1,4-diazepan-1-yl)pyrimidine-2-carbonitrile], the IC50 lay within 15 to 60 nM. `N#Cc1cc(NC2CCN(Cc3ccc(-n4c(-c5cccnc5N)nc5ccc(-c6ccccc6F)nc54)cc3)CC2)ncn1` [Example 315, 6-((1-(4-(2-(2-Aminopyridin-3-yl)-5-(2-fluorophenyl)-3H-imidazo[4,5-b]pyridin-3-yl)benzyl)piperidin-4-yl)amino)pyrimidine-4-carbonitrile]: the IC50 lay in the range of 15 to 60 nM. On to `N#Cc1cc(N2CC3CCC2CN3Cc2ccc(-n3c(-c4cccnc4N)nc4ccc(-c5ccccc5)nc43)cc2)ncn1` (stereo not drawn) [Example 221, 6-(5-(4-(2-(2-Aminopyridin-3-yl)-5-phenyl-3H-imidazo[4,5-b]pyridin-3-yl)benzyl)-2,5-diazabicyclo[2.2.2]octan-2-yl)pyrimidine-4-carbonitrile], for which the half-inhibitory concentration (IC50) lay within 60 to 600 nM.
